The results in this text go back to PMC7934871 (JCI Insight, 2021).

Non-standard residues stand in square brackets, D forms with d. No end group written: not given here. pY = N[C@@H](Cc1ccc(OP(=O)(O)O)cc1)C(=O)O

One assay relates to STAT3 signaling. The assay can be described thus: Gene expression of STAT3 targets by quantitative PCR. The following applies: 1 μM, with or without IL-6 stimulation, n = 3. Format: cell-based. As for the experimental part:
Figure 8 PS-Gp130 and PS-MYC blocking peptides efficiently internalize into tumor cells to exert their functions. (A) For 1 hour 1 μM of PS-conjugated MYC (PS-MYC) and Gp130 (PS-Gp130) were incubated with cancer cells. PS-scramble MYC (PS-SC-MYC) was used as a control for PS-MYC. The peptide uptake was visualized by confocal microscopy and quantified by flow cytometry. Data are representative of 3 independent experiments (n = 3). (B) Upper panel: The binding of PS-Gp130 and STAT3 was examined by immunoprecipitation and Western blotting. PO-Gp130 was used as a control. For 4 hours prior to harvest, 1 μM of peptide was incubated with cells. […] (C) Gene expression of STAT3 targets was examined by quantitative PCR after the treatment with 1 μM of PS-Gp130 with or without IL-6 stimulation as described above. […] (D) A total of 1 μM of PS-SC-MYC or PS-MYC was incubated with cells for 48 hours before the gene expression of MYC targets was examined by quantitative PCR. […]
Total RNA was extracted from cultured or tumor tissues using RNeasy kit (QIAGEN), according to manufacturer’s instruction. After cDNA synthesis using iScript cDNA Synthesis kit (Bio-Rad), samples were analyzed using pairs of primers specific for CASP9, CASP3, CASP8, BIRC5, BCL2L1, MYC, TP53, VEGF, IL1B, SERPIN3, FGA, CDK4, CCND2, CDKN2A, CDKN2B, GADD45A, mCD274, mMmp9, and mBirc5, as indicated. […]

Another assay relates to splenic CD8+ T cells. The assay can be described thus: CD8+ T cell activation and ELISA (IFN-γ, IL-2). Format: cell-based, mouse. The conditions noted are these: anti-CD3/CD28 activated, 20 ng/mL IL-6, 1 μM peptide, 48 hours, ELISA, n = 4. As for the experimental part:
Data are representative of 3 independent experiments (n = 3). […] Data represent 4 independent experiments (n = 4). SD is shown. One-way ANOVA; ****P < 0.001.
CD8^+ T cells were isolated from C57BL/6 mice spleens as described above. A 96-well plate (Cellstar) was precoated with 2 μg/mL anti-CD3 antibody (BioLegend, clone 145-2c11, 100331) at 4°C overnight (BioLegend), and 1–2 × 10^5 cells were seeded into each well, followed by adding 2 μg/mL soluble CD28 (BioLegend, clone 37-51, 102012) and stimulation with 20 ng/mL IL-6. PS-unacet.-STAT3, PS-STAT3-K685R, and PO- or PS-acet.-STAT3 peptides at a concentration of 1 μM were added to the cells. Peptide treatment was repeated on the following day. Control cells were treated with HBSS. After 48 hours’ treatment with peptides at 37°C, supernatants were assessed for IFN-γ and IL-2 production by R&D, Bio-Techne, kits (DY402 and DY406), according to manufacturer’s instruction.
On the technique in general: ELISA stands for enzyme-linked immunosorbent assay.

In the case of “PS-Gp130: PS-conjugated Gp130 peptide (amino acids 901–910) with phospho-Tyr905 (MPKS[pY]LPQTV; also: phosphorothioate oligonucleotide conjugate; UniProt P40189 901-910, looked up, fragment)”, the “STAT3 signaling (gene expression of STAT3 targets)” value in the assay on STAT3 signaling was “significantly blocked”.

Turning to “PDIPKEEAFGK685(Ac)YCRPESQEHPC-linker-T*C*C*A*T*G*A*G*C*T*T*C*C*T*G*A*T*G*C*T [PS-acet.-STAT3 peptide]”, the “interferon-γ (IFN-γ) and IL-2 production by CD8+ T cells” value in the assay on splenic CD8+ T cells was “induced”.
